ChEMBL document CHEMBL1141043, “Novel, selective indole-based ECE inhibitors: lead optimization via solid-phase and classical synthesis” (Bioorg Med Chem Lett, 2005)

These molecules were tested against T1, Endothelin-converting enzyme 1 (Homo sapiens, UniProt P42892) (assay: Inhibitory concentration against endothelin converting enzyme 1 using bradykinin-derived substrate).
T1 sequence (P42892 whole entry): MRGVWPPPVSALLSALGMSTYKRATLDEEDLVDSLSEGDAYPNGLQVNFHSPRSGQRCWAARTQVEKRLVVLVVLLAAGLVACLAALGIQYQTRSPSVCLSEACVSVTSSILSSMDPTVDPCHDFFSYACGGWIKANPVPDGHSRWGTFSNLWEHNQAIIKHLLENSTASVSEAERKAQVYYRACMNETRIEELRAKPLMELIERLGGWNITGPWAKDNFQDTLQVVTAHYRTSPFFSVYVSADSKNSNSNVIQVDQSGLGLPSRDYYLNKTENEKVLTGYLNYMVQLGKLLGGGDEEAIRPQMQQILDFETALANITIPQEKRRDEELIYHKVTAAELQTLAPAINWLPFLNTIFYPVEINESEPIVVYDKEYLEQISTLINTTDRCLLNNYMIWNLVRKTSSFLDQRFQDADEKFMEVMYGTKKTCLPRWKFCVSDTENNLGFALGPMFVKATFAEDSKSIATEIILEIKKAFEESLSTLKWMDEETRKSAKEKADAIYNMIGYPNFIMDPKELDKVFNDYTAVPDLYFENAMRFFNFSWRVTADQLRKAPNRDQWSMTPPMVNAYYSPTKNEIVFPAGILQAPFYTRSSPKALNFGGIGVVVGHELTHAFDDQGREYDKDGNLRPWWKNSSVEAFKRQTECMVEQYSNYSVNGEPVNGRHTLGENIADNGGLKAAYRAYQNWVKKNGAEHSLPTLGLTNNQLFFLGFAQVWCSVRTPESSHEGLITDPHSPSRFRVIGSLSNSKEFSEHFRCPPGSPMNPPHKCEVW

IC50 | SMILES
> 10000 nM | CC(C)(C)CC(=O)Nc1ccc2c(c1)cc(CNc1ccccc1)n2Cc1ccccc1F
> 10000 nM | CC(C)(C)CC(=O)Nc1ccc2c(c1)cc(-c1nc(-c3ccccc3)no1)n2Cc1ccccc1F
> 10000 nM | CC(C)(C)CC(=O)Nc1ccc2c(c1)cc(C(=O)Nc1ccn[nH]1)n2Cc1ccccc1F

SMILES | IC50
CC(C)(C)CC(=O)Nc1ccc2c(c1)c(C(=O)Nc1ccccc1)cn2Cc1ccccc1F | > 10000 nM

Each molecule was assayed against T1, Endothelin-converting enzyme 1 (assay: Inhibitory concentration against endothelin converting enzyme 1 using big-ET-1 substrate in ELISA).

IC50 | SMILES
150 nM | CNS(=O)(=O)c1ccc(NC(=O)c2cccc(NC(=O)c3cc4cc(NC(=O)CC(C)(C)C)ccc4n3Cc3ccccc3F)c2)cc1
120 nM | CC(C)(C)CC(=O)Nc1ccc2c(c1)cc(C(=O)Nc1cccc(C(=O)Nc3ccc(S(C)(=O)=O)cc3)c1)n2Cc1ccccc1F
66 nM | C[S+]([O-])c1ccc(NC(=O)c2cccc(NC(=O)c3cc4cc(NC(=O)CC(C)(C)C)ccc4n3Cc3ccccc3F)c2)cc1 (stereo not drawn)
39 nM | CC(C)(C)CC(=O)Nc1ccc2c(c1)cc(C(=O)Nc1cccc(C(=O)Nc3ccc(S(N)(=O)=O)cc3)c1)n2Cc1ccccc1F
